These results are taken from patent publication US5464617A, “β-lactam compounds” (Hoffmann-La Roche Inc., priority 1994, dated 1995).

Where a name gives a salt, the structure may show the parent alone.

The subject of the assay is Citrobacter freundii 1982. Briefly: MIC in vitro of a 1:4 combination of ceftriaxone with a compound of formula I (Test D). The note with it: Table 2; 1:4 combination of ceftriaxone with the compound. The class given is cell-based. Here is the method:
The minimum inhibitory concentration in vitro ([…]) of a 1:4 combination of ceftriaxone with a compound of formula I against Citrobacter freundii 1982 was measured and compiled in Table 2 hereinafter.
As to `Cn1nnnc1SC1=C(C(=O)O)N2C(=O)[C@@H]3[C@H]2[C@H](C1)CN3C(=O)NC1CCS(=O)(=O)C1` (mixture of isomers) [3(i), (1aS,3aR,6bR)-2-[(R)- and [(S)-1,1-dioxo-tetrahydrothien-3-ylcarbamoyl)-5-(1-methyl-1H-tetrazol-5-ylsulphanyl)-1-oxo-1a,2,3,3a,4,6b-hexahydro-1H-2,6a-diazacyclobut[cd]indene-6-carboxylic acid sodium salt], the “MIC C. freundii 1982” value turned out to be 0.06 µg/mL.

For `O=C([O-])C1=C(C[n+]2ccccc2)C[C@@H]2CN(C(=O)NCc3cc(O)no3)[C@@H]3C(=O)N1[C@H]23` [23(b), (1aS,3aR,6bR)-2-(3-Hydroxy-isoxazol-5-ylmethylcarbamoyl)-1-oxo-5-(pyridin-1-yliomethyl)-1a,2,3,3a,4,6b-hexahydro-1H-2,6a-diazacyclobut[cd]indene-6-carboxylate], the “MIC C. freundii 1982” value is 1 µg/mL.

For the compound `COC(=O)CC1=C(C(=O)O)N2C(=O)[C@@H]3[C@H]2[C@H](C1)CN3C(=O)Nc1ccc(O)cc1` [13(b), (1aS,3aR,6bR)-2-(4-Hydroxy-phenylcarbamoyl)-5-methoxycarbonylmethyl-1-oxo-1a,2,3,3a,4,6b-hexahydro-1H-2,6a-diazacyclobut[cd]indene-6-carboxylic add sodium salt], the “MIC C. freundii 1982” value was found to be 0.25 µg/mL.

Regarding `Cn1nnnc1SC1=C(C(=O)O)N2C(=O)[C@@H]3[C@H]2[C@H](C1)CN3C(=O)NC1CCSC1=O` (mixture of isomers) [3(f), (1aS,3aR,6bR)-5-(1-Methyl-1H-tetrazol-5-ylsulphanyl)-1-oxo-2-[(R)- and [(S)-2-oxo-tetrahydro-thien-3-ylcarbamoyl]-1a,2,3,3a,4,6b-hexahydro-1H-2,6a-diazacyclobut[cd]indene-6-carboxylic acid sodium salt], the “MIC C. freundii 1982” value turned out to be 0.06 µg/mL.

Turning to `CC(C)(C)OC(=O)N1C[C@H]2CC(OS(C)(=O)=O)=C(C(=O)O)N3C(=O)[C@@H]1[C@@H]23` [10(a), (1aS,3aR,6bR)-2-t-Butoxycarbonyl-5-methylsulphonyloxy-1-oxo-1a,2,3,3a,4,6b-hexahydro-1H-2,6a-diazacyclobut[cd]-indene-6-carboxylic acid sodium salt], the “MIC C. freundii 1982” value was determined as 1 µg/mL.

`Cc1ccc(S(=O)(=O)OC2=C(C(=O)O)N3C(=O)[C@@H]4[C@H]3[C@H](C2)CN4C(=O)OC(C)(C)C)cc1` [10(d), (1aS,3aR,6bR)-2-t-Butoxycarbonyl-5-(4-methyl-phenylsulphonyloxy)-1-oxo-1a,2,3,3a,4,6b-hexahydro-1H-2,6a-diazacyclobut[cd]indene-6-carboxylic acid sodium salt]: the “MIC C. freundii 1982” value was 8 µg/mL.

For `Cc1nnc(SC2=C(C(=O)O)N3C(=O)[C@@H]4[C@H]3[C@H](C2)CN4C(=O)Nc2ccc(C(N)=O)cc2)s1` [3(k), (1aS,3aR,6bR)-2-(4-Carbamoyl-phenylcarbamoyl)-5-(5-methyl-1,3,4-thiadiazol-2-ylsulphanyl)-1-oxo-1a,2,3,3a,4,6b-hexahydro-1H-2,6a-diazacyclobut[cd]indene-6-carboxylic acid sodium salt], the “MIC C. freundii 1982” value came to 0.5 µg/mL.

As for `C[n+]1ccc(SCC2=C(C(=O)[O-])N3C(=O)[C@@H]4[C@H]3[C@H](C2)CN4C(=O)Nc2ccc(C(N)=O)cc2)cc1` [Example 21, (1aS,3aR,6bR)-2-(4-Carbamoyl-phenylcarbamoyl)-5-(1-methylpyridin-1-yliosulphanylmethyl)-1-oxo-1a,2,3,3a,4,6b-hexahydro-1H-2,6a-diazacyclobut[cd]indene-6-carboxylate], the “MIC C. freundii 1982” value amounted to 0.5 µg/mL.

`O=C(C[n+]1ccccc1)Nc1nnc(SC2=C(C(=O)[O-])N3C(=O)[C@@H]4[C@H]3[C@H](C2)CN4C(=O)Nc2ccc(O)cc2)s1` [Example 5, (1aS,3aR,6bR)-2-(4-Hydroxy-phenylcarbamoyl)-1-oxo-5-[5-(pyridin-1-ylioacetylamino)-1,3,4-thiadiazol-2-ylsulphanyl]-1a,2,3,3a,4,6b-hexahydro-1H-2,6a-diazacyclobut[cd]indene-6-carboxylic acid]: the “MIC C. freundii 1982” value was determined as 2 µg/mL.
